Measurements reported in paper PMC9299836 (eLife, 2022).

Target: mGluR2 (Mus musculus, UniProt Q14BI2, A548F)
Experiment: smFRET of azi-CRD: cross-correlation of donor and acceptor intensities (CRD dynamics) and HMM transition density plots;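 note: single detergent-solubilized receptors captured on antibody-coated flow cells via C-terminal FLAG-tag, imaged by smFRET, donor and acceptor intensity traces from three independent biological replicates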
Conditions: for CRD dynamics by cross-correlation of donor and acceptor intensities: azi-CRD

Chain of mGluR2 (Q14BI2 19-872 A548F): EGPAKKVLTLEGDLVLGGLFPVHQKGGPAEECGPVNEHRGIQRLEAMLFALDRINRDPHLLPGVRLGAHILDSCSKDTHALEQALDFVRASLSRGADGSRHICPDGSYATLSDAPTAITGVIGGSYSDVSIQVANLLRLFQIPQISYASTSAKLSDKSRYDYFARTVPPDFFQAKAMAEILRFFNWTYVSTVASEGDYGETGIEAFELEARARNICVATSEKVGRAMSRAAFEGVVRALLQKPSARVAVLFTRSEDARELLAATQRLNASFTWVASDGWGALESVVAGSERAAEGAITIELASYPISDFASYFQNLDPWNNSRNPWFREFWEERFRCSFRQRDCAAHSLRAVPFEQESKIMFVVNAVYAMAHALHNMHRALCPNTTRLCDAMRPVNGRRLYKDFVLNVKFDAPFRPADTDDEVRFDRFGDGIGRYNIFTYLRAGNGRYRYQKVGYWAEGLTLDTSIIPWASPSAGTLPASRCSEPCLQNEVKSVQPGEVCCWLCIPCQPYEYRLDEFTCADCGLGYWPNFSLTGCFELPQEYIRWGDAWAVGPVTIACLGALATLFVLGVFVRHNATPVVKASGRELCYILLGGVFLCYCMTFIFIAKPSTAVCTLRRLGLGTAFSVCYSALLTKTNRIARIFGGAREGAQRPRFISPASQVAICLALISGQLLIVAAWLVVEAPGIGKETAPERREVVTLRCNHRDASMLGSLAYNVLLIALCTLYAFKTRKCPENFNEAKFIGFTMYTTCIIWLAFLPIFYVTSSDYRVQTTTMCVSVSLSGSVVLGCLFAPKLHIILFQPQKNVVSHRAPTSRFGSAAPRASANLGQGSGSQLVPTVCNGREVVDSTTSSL

Cross Correlation, Mean (15μM Glutamate + 5μM MNI-137, Time 0.95 s): -0.03855
Cross Correlation, Mean (15μM Glutamate + 5μM MNI-137, Time 1 s): -0.03542
Cross Correlation, Mean (15μM Glutamate + 5μM MNI-137, Time 1.05 s): -0.03118
Cross Correlation, Mean (15μM Glutamate + 5μM MNI-137, Time 1.1 s): -0.03249
Cross Correlation, Mean (15μM Glutamate + 5μM MNI-137, Time 1.15 s): -0.02794
Cross Correlation, Mean (15μM Glutamate + 5μM MNI-137, Time 1.2 s): -0.03365
Cross Correlation, Mean (15μM Glutamate + 5μM MNI-137, Time 1.25 s): -0.03207
Cross Correlation, Mean (15μM Glutamate + 5μM MNI-137, Time 1.3 s): -0.02844
Cross Correlation, Mean (15μM Glutamate + 5μM MNI-137, Time 1.35 s): -0.02868
Cross Correlation, Mean (15μM Glutamate + 5μM MNI-137, Time 1.4 s): -0.02437
Cross Correlation, Mean (15μM Glutamate + 5μM MNI-137, Time 1.45 s): -0.02342
Cross Correlation, Mean (15μM Glutamate + 5μM MNI-137, Time 1.55 s): -0.02529
Cross Correlation, Mean (15μM Glutamate + 5μM MNI-137, Time 1.6 s): -0.02454
Cross Correlation, Mean (15μM Glutamate + 5μM MNI-137, Time 1.65 s): -0.02035
Cross Correlation, Mean (15μM Glutamate + 5μM MNI-137, Time 1.75 s): -0.02381
Cross Correlation, Mean (15μM Glutamate + 5μM MNI-137, Time 1.8 s): -0.02039
Cross Correlation, Mean (15μM Glutamate + 5μM MNI-137, Time 1.85 s): -0.02364
Cross Correlation, Mean (15μM Glutamate + 5μM MNI-137, Time 1.9 s): -0.02018
Cross Correlation, Mean (15μM Glutamate + 5μM MNI-137, Time 1.95 s): -0.01877
Cross Correlation, Mean (1000μM Glutamate + 5μM MNI-137, Time 0.2 s): -0.2112
Cross Correlation, Mean (1000μM Glutamate + 5μM MNI-137, Time 0.25 s): -0.1919
Cross Correlation, Mean (1000μM Glutamate + 5μM MNI-137, Time 0.3 s): -0.1758
Cross Correlation, Mean (1000μM Glutamate + 5μM MNI-137, Time 0.35 s): -0.1629
Cross Correlation, Mean (1000μM Glutamate + 5μM MNI-137, Time 0.4 s): -0.1514
Cross Correlation, Mean (1000μM Glutamate + 5μM MNI-137, Time 0.45 s): -0.1426
Cross Correlation, Mean (1000μM Glutamate + 5μM MNI-137, Time 0.5 s): -0.1307
Cross Correlation, Mean (1000μM Glutamate + 5μM MNI-137, Time 0.55 s): -0.1241
Cross Correlation, Mean (1000μM Glutamate + 5μM MNI-137, Time 0.6 s): -0.1177
Cross Correlation, Mean (1000μM Glutamate + 5μM MNI-137, Time 0.65 s): -0.1093
Cross Correlation, Mean (1000μM Glutamate + 5μM MNI-137, Time 0.7 s): -0.1013
Cross Correlation, Mean (1000μM Glutamate + 5μM MNI-137, Time 0.75 s): -0.09952
Cross Correlation, Mean (1000μM Glutamate + 5μM MNI-137, Time 0.8 s): -0.09295
Cross Correlation, Mean (1000μM Glutamate + 5μM MNI-137, Time 0.85 s): -0.08726
Cross Correlation, Mean (1000μM Glutamate + 5μM MNI-137, Time 0.9 s): -0.08538
Cross Correlation, Mean (1000μM Glutamate + 5μM MNI-137, Time 0.95 s): -0.07938
Cross Correlation, Mean (1000μM Glutamate + 5μM MNI-137, Time 1 s): -0.07503
Cross Correlation, Mean (1000μM Glutamate + 5μM MNI-137, Time 1.05 s): -0.07213
Cross Correlation, Mean (1000μM Glutamate + 5μM MNI-137, Time 1.1 s): -0.06374
Cross Correlation, Mean (1000μM Glutamate + 5μM MNI-137, Time 1.15 s): -0.06369
Cross Correlation, Mean (1000μM Glutamate + 5μM MNI-137, Time 1.2 s): -0.0627
Cross Correlation, Mean (1000μM Glutamate + 5μM MNI-137, Time 1.3 s): -0.05443
Cross Correlation, Mean (1000μM Glutamate + 5μM MNI-137, Time 1.35 s): -0.05075
Cross Correlation, Mean (1000μM Glutamate + 5μM MNI-137, Time 1.4 s): -0.05008
Cross Correlation, Mean (1000μM Glutamate + 5μM MNI-137, Time 1.45 s): -0.0474
Cross Correlation, Mean (1000μM Glutamate + 5μM MNI-137, Time 1.5 s): -0.04472
Cross Correlation, Mean (1000μM Glutamate + 5μM MNI-137, Time 1.55 s): -0.04463
Cross Correlation, Mean (1000μM Glutamate + 5μM MNI-137, Time 1.65 s): -0.03966
Cross Correlation, Mean (1000μM Glutamate + 5μM MNI-137, Time 1.7 s): -0.03894
Cross Correlation, Mean (1000μM Glutamate + 5μM MNI-137, Time 1.75 s): -0.03942
Cross Correlation, Mean (1000μM Glutamate + 5μM MNI-137, Time 1.8 s): -0.03907
Cross Correlation, Mean (1000μM Glutamate + 5μM MNI-137, Time 1.9 s): -0.0321
Cross Correlation, Mean (1000μM Glutamate + 5μM MNI-137, Time 1.95 s): -0.034
CRD dynamics by cross-correlation of donor and acceptor intensities (5 μM modulator, absence of glutamate): reduced CRD dynamics
Substance: MNI-137
CRD dynamics by cross-correlation of donor and acceptor intensities (5 μM modulator with 15 μM and 1 mM glutamate): glutamate concentration-dependent increase in the CRD dynamics
